Where only a bound is given, the exact number is not on record here.

The target in this test is T1, TDO2 (Homo sapiens, UniProt P48775).
T1 construct: decreased levels of NFK in SW48 cells (high TDO expressing cells)
T1 sequence (P48775 whole entry): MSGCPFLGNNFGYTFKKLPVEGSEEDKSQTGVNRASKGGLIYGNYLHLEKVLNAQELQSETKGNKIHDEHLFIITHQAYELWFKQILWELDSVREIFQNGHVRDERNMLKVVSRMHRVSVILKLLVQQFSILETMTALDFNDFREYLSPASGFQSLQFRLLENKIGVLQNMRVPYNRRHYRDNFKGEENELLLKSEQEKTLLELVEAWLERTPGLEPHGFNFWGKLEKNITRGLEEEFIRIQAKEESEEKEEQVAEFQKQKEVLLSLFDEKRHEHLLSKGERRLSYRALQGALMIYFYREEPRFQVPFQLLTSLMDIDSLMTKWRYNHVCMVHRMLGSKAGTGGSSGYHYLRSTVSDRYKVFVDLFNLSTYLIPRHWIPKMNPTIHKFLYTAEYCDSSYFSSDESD
In words: TDO2 cell assay (NFK GreenScreen, SW48 cells). The class given is cell-based. As to conditions: SW48 cells (high TDO expressing), 200 uM tryptophan, 24 hours; Table 3; read-out: TDO2 Cell Fluor EC50.
Usually EC50 stands for the concentration giving half of the maximal effect. As for `CC(C)S(=O)(=O)N1CC[C@@H]([C@H]2c3ccccc3-c3cncn32)[C@H](O)C1` (single isomer, unassigned) [Example 80b], the EC50 worked out at 0.14 µM.

On to `OC1COCC1C1c2ccccc2-c2cncn21` (single isomer, unassigned) [Example 26a], for which the EC50 was > 25 µM. The value for `OC1CC2(CC2)C1C1c2ccccc2-c2cncn21` (single isomer, unassigned) [Example 72c] was 10 µM; that for `O[C@@H]1c2ncsc2CC[C@H]1[C@H]1c2ccccc2-c2cncn21` [Example 125b, (4S,5S)-5-((S)-5H-imidazo[5,1-a]isoindol-5-yl)-4,5,6,7-tetrahydrobenzo[d]thiazol-4-ol] was 0.067 µM. Take `OC1c2cncn2CCC1C1c2ccccc2-c2cncn21` (single isomer, unassigned) [Example 07e]: the EC50 was determined as 2.2 µM. On to `OC1c2cnccc2CCC1C1c2ccccc2-c2cncn21` (single isomer, unassigned) [Example 04c], for which the EC50 was 1 µM. With `O[C@H]1CCCC[C@H]1[C@H]1c2ccccc2-c2cncn21` [Example 03a, (1S,2S)-2-((S)-5H-imidazo[5,1-a]isoindol-5-yl)cyclohexan-1-ol], the EC50 came to 0.077 µM. On to `OC1(C2c3ccccc3-c3cncn32)CCCc2ccncc21` (single isomer, unassigned) [Example 141c], for which the EC50 is > 25 µM. With `CC(C)(C)OC(=O)N1CCCC(O)(C2c3ccccc3-c3cncn32)C1` (single isomer, unassigned) [Example 127a], the EC50 was determined as 3.7 µM.

For `O[C@@H]1c2ccncc2CC[C@H]1[C@@H]1c2ccccc2-c2cncn21` (single isomer, unassigned) [Example 08f], the EC50 was 12 µM. The value for `CCS(=O)(=O)N1CCC(O)C(C2c3ccccc3-c3cncn32)C1` (single isomer, unassigned) [Example 15b] was > 25 µM; that for `N#CCN1CCC(O)C(C2c3ccccc3-c3cncn32)C1` (single isomer, unassigned) [Example 14a] was 0.36 µM; that for `NS(=O)(=O)N1CCC2(CC1)CC(C1c3ccccc3-c3cncn31)C2O` (single isomer, unassigned) [Example 181c] was > 25 µM. For `OC1c2cccnc2CCC1C1c2ccccc2-c2cncn21` (single isomer, unassigned) [Example 31e], the EC50 turned out to be 1.1 µM. As for `CS(=O)(=O)N1CC[C@@H]([C@@H]2c3ccccc3-c3cncn32)[C@H](O)C1` (single isomer, unassigned) [Example 64b], the figure is 0.087 µM; as for `OC1c2ccccc2CC1C1c2ccccc2-c2cncn21` (single isomer, unassigned) [Example 19d], 0.2 µM; as for `C[C@@H](O)[C@@H]1c2ccccc2-c2cncn21` [Example 42a, (R)-1-((S)-5H-imidazo[5,1-a]isoindol-5-yl)ethan-1-ol], > 25 µM. Turning to `O[C@@H]1c2c(Cl)cnn2CC[C@@H]1[C@@H]1c2ccccc2-c2cncn21` [Example 160a, (4S,5R)-3-chloro-5-((R)-5H-imidazo[5,1-a]isoindol-5-yl)-4,5,6,7-tetrahydropyrazolo[1,5-a]pyridin-4-ol], the EC50 was > 25 µM. For the molecule `O[C@@H]1c2cccnc2CC[C@H]1[C@@H]1c2ccccc2-c2cncn21` [Example 31g, (5S,6S)-6-((R)-5H-imidazo[5,1-a]isoindol-5-yl)-5,6,7,8-tetrahydroquinolin-5-ol], the EC50 worked out at 1.8 µM. Consider `C[C@@H](O)[C@H]1c2ccccc2-c2cncn21` [Example 42b, (R)-1-((R)-5H-imidazo[5,1-a]isoindol-5-yl)ethan-1-ol], for which the EC50 turned out to be 11.8 µM. Take `Cn1ncc2c1CCC(C1c3ccccc3-c3cncn31)C2O` (single isomer, unassigned) [Example 93b]: the EC50 amounted to 5.5 µM. For the molecule `OC1c2cnncc2CCC1C1c2ccccc2-c2cncn21` (single isomer, unassigned) [Example 112a], the EC50 was > 25 µM. Take `N#Cc1cnc2c(c1)CCC(C1c3ccccc3-c3cncn31)C2O` (single isomer, unassigned) [Example 107b]: the EC50 is > 25 µM. The value for `CC1(C)COCC(C2c3ccccc3-c3cncn32)C1O` (single isomer, unassigned) [Example 66c] was 4.8 µM; that for `OC(C1c2ccccc2-c2cncn21)C1(F)CC1` (single isomer, unassigned) [Example 154c] was 5.4 µM; that for `NC(=O)c1nc2c(s1)CCC(C1c3ccccc3-c3cncn31)C2O` (single isomer, unassigned) [Example 149a] was 0.19 µM.

For `CS(=O)(=O)N1CCC(O)(C2c3ccccc3-c3cncn32)C1` (single isomer, unassigned) [Example 116a], the EC50 was > 25 µM. With `OC1c2cccn2CCC1C1c2ccccc2-c2cncn21` (single isomer, unassigned) [Example 136e], the EC50 was found to be 0.64 µM. For `CC1(C)OCC(C2c3ccccc3-c3cncn32)C1O` (single isomer, unassigned) [Example 85g], the EC50 came to 0.14 µM. Turning to `N#CCN1CCC(O)C(C2c3ccccc3-c3cncn32)C1` (single isomer, unassigned) [Example 14c], the EC50 was 20 µM.

On to `NS(=O)(=O)N1CCC2(CC1)CC(C1c3ccccc3-c3cncn31)C2O` (single isomer, unassigned) [Example 181h], for which the EC50 was found to be 11 µM. Consider `OC(C1c2ccccc2-c2cncn21)C1(F)CC1` (single isomer, unassigned) [Example 154b], for which the EC50 is > 25 µM. In the case of `CC1(C)OCC(C2c3ccccc3-c3cncn32)C1O` (single isomer, unassigned) [Example 85b], the 50% effective concentration (EC50) is 0.13 µM. Turning to `CC(C)(C)OC(=O)N1CCC(O)C(C2c3ccccc3-c3cncn32)C1` (single isomer, unassigned) [Example 11d, tert-butyl 4-hydroxy-3-(5H-imidazo[5,1-a]isoindol-5-yl)piperidine-1-carboxylate], the EC50 came to 22 µM. As to `CC1(C)C[C@H](O)[C@@H]1[C@H]1c2ccccc2-c2cncn21` [Example 22a, (1S,2S)-2-((S)-5H-imidazo[5,1-a]isoindol-5-yl)-3,3-dimethylcyclobutan-1-ol], the EC50 worked out at 0.06 µM.

For `OC1CCOCC1C1c2cccc(F)c2-c2cncn21` (single isomer, unassigned) [Example 170b], the EC50 came out at 2.1 µM. `CC(C)S(=O)(=O)N1CCC(C2c3ccccc3-c3cncn32)C(O)C1` (single isomer, unassigned) [Example 89a]: the EC50 came out at 14 µM. As for `OC1c2cncnc2CCC1C1c2ccccc2-c2cncn21` (single isomer, unassigned) [Example 94f], the figure is 12 µM.

On to `CN1CC[C@@H]([C@H]2c3ccccc3-c3cncn32)[C@H](O)C1` [Example 83b, (3S,4S)-4-((S)-5H-imidazo[5,1-a]isoindol-5-yl)-1-methylpiperidin-3-ol], for which the EC50 is 1.4 µM.

Consider `OC1c2ccnn2CCCC1C1c2ccccc2-c2cncn21` (single isomer, unassigned) [Example 133f], for which the EC50 was > 25 µM. Regarding `O[C@@H]1c2ccccc2CC[C@H]1[C@@H]1c2ccccc2-c2cncn21` (single isomer, unassigned) [Example 102g], the EC50 was 0.35 µM. As to `CS(=O)(=O)c1ccc2c(c1)CCC(C1c3ccccc3-c3cncn31)C2O` (single isomer, unassigned) [Example 36a], the EC50 is 1.3 µM.

`OC1c2cc(C(F)F)nn2CCC1C1c2ccccc2-c2cncn21` (single isomer, unassigned) [Example 173a]: the EC50 is > 25 µM. Consider `Cn1cc2c(n1)C(O)C(C1c3ccccc3-c3cncn31)CC2` (single isomer, unassigned) [Example 139-1a], for which the EC50 came out at 5.3 µM. Turning to `N#CCN1CC[C@@H]([C@H]2c3ccccc3-c3cncn32)[C@H](O)C1` (single isomer, unassigned) [Example 27a], the EC50 is > 25 µM. For `OC1(C2c3ccccc3-c3cncn32)CCCc2ccncc21` (single isomer, unassigned) [Example 141d], the EC50 is > 25 µM.

For the molecule `OC(C1CC1)C1c2ccccc2-c2cncn21` (single isomer, unassigned) [Example 52a], the EC50 turned out to be 0.24 µM. In the case of `O=c1cccc2n1CCC(C1c3ccccc3-c3cncn31)C2O` (single isomer, unassigned) [Example 29e, 1-hydroxy-2-(5H-imidazo[5,1-a]isoindol-5-yl)-3,4-dihydro-1H-quinolizin-6(2H)-one], the EC50 is 0.44 µM. With `Cn1cc2c(n1)CCC(C1c3ccccc3-c3cncn31)C2O` (single isomer, unassigned) [Example 130e], the EC50 came out at 3.1 µM. Consider `OC1c2cnccc2CC1C1c2ccccc2-c2cncn21` (single isomer, unassigned) [Example 71f], for which the EC50 is > 25 µM. Turning to `OC1COCCC1C1c2cccc(F)c2-c2cncn21` (single isomer, unassigned) [Example 99a], the EC50 was > 25 µM. As for `N#CCN1CCC(O)C(C2c3ccccc3-c3cncn32)C1` (single isomer, unassigned) [Example 14b], the EC50 was > 25 µM. In the case of `OC1c2nonc2CCC1C1c2ccccc2-c2cncn21` (single isomer, unassigned) [Example 163c], the EC50 amounted to 15 µM. On to `N#Cc1cnc2c(c1)CCC(C1c3ccccc3-c3cncn31)C2O` (single isomer, unassigned) [Example 107g], for which the EC50 stood at 0.87 µM. For the molecule `OC1CCCOCC1C1c2ccccc2-c2cncn21` (single isomer, unassigned) [Example 86e], the EC50 is > 25 µM. As to `OC1c2cnccc2CC1C1c2ccccc2-c2cncn21` (single isomer, unassigned) [Example 71bb], the EC50 amounted to 0.49 µM. Turning to `OC1c2cnncc2CCC1C1c2ccccc2-c2cncn21` (single isomer, unassigned) [Example 112c], the EC50 was > 25 µM. On to `OC1CC2(CC2)C1C1c2ccccc2-c2cncn21` (single isomer, unassigned) [Example 72g], for which the EC50 came out at 11 µM.

The values above are taken from patent US12583858B2 (Genentech, Inc., priority 2015, dated 2026).
